We go through four compounds from ChEMBL document CHEMBL1143694, “Fawcettimine-related alkaloids from Lycopodium serratum” (J Nat Prod, 2007).

The assay deals with Acetylcholinesterase (Homo sapiens, UniProt P22303). In words: Inhibition of AChE by Ellman method.

Molecules are shown by their SMILES. The source made the active and inactive calls. The rule behind the calls is not given here.

Sequence of Acetylcholinesterase (P22303 whole entry): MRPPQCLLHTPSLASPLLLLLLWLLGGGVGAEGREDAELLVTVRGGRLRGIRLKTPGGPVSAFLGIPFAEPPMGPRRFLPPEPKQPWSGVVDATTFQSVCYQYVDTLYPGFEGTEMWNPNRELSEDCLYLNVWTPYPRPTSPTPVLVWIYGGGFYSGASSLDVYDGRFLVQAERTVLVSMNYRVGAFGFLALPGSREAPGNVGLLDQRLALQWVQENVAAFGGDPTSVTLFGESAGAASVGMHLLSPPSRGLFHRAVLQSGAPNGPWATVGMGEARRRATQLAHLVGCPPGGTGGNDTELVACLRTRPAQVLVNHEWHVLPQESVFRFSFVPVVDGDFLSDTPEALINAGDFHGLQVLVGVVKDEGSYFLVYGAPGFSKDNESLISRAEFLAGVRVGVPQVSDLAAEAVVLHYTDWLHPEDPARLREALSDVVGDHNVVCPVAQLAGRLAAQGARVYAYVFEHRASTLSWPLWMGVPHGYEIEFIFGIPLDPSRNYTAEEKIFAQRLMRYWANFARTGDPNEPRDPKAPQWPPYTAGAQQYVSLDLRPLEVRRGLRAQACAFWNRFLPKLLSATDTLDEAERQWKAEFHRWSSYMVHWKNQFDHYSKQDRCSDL

`C[C@H]1C=C2N3CC[C@@H](O)C24[C@H](CC(=O)[C@H]4C[C@H](O)C3)C1` (some centres undefined) came in with an IC50 of 27.9 µM.

Regarding `C[C@H]1C=C2N3CCC[C@@H]4C(=O)C[C@H](C1)C24[C@H](O)CC3` (some centres undefined), the outcome was inactive.

On to `CC1=C[C@H]2[C@H](O)C(=O)[C@H]3CCCN4CCC[C@H]2[C@]34C1`, for which the half-inhibitory concentration (IC50) stood at 16.7 µM.

Regarding `C[C@H]1C[C@]2(O)N3CC=CC24[C@H](CCC3)C(=O)C[C@@H]4[C@H]1O` (some centres undefined), the result was inactive.
